Measured values: ChEMBL document CHEMBL1201862, “PubChem BioAssay data set” (2004)
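Results reflect a 48-hour exposure of cells in 96-well plates to compound at five concentrations. Here, GI50 denotes the concentration required for 50% inhibition of growth.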 The source made the active and inactive calls. No stated cut-off is given here; in the data, active = GI50 up to about 1.1 µM and inactive = higher.

Tests used:
Test in all cases: growth of human tumour cells (NCI), 48 h
[1] = system: OVCAR-3
[2] = system: OVCAR-4
[3] = system: EKVX
[4] = system: HOP-92
[5] = system: NCI-H23
[6] = system: SF-295
[7] = system: HL-60
[8] = system: MDA-MB-435
[9] = system: NCI-H460
[10] = system: DU-145
[11] = system: LOX IMVI
[12] = system: Malme-3M
[13] = system: SF-539
[14] = system: CCRF-CEM
[15] = system: SNB-75
[16] = system: SK-MEL-2
[17] = system: M14
[18] = system: CAKI-1
[19] = system: HT-29
[20] = system: RXF 393

Measured: GI50

Nc1nc(Cl)c(C=O)c(NCC2(CO)CCC2)n1
inactive: [1] 17.5 µM | [2] 14.3 µM | [3] 17.6 µM | [4] 15.3 µM | [5] 26.4 µM | [6] 22.8 µM | [7] 4.5 µM | [8] 28.8 µM | [9] 31 µM | [10] 31.1 µM | [11] 12.4 µM | [12] 43.1 µM | [13] 32.7 µM | [14] 12.9 µM | [15] 24 µM | [16] 14.5 µM | [17] 26.5 µM | [18] 13.6 µM | [19] 31.4 µM | [20] 17.8 µM

CC(C)(C)c1cc(C(C)(C)C)c(SS(=O)(=O)O)c(O)c1O
inactive: [1] 34.1 µM | [2] 28.9 µM | [3] 62.1 µM | [4] 84.1 µM | [5] > 100 µM | [6] 31.8 µM | [7] 65.6 µM | [8] 23.9 µM | [9] 10.9 µM | [10] 62.5 µM | [11] 35.4 µM | [12] 97.5 µM | [13] 15.1 µM | [14] 49 µM | [15] 34.5 µM | [16] 21.2 µM | [17] 41.3 µM | [18] 52.2 µM | [19] 41.1 µM | [20] 28.2 µM
